In ChEMBL document CHEMBL3817730, “Design, synthesis and antimetastatic evaluation of 1-benzothiazolylphenylbenzotriazoles for photodynamic therapy in oral cancer cells” (Medchemcomm, 2016):
Calls of active or inactive are those of the source. The rule behind the calls is not given here.

Key:
[1] = Cytotoxicity against human Ca9-22 cells assessed as cell survival at 5 uM preincubated for 4 hrs followed by 1 Jcm'-2 UVA irradiation measured after 24 hrs by MTT assay relative to control; type: cell-based; settings: read-out: Survival
[2] = Cytotoxicity against human Ca9-22 cells assessed as inhibition of cell survival at 2 uM preincubated for 2 hrs followed by 0.5 Jcm'-2 UVA irradiation measured after 24 hrs by MTT assay relative to control; type: cell-based; settings: read-out: INH
Ca9-22 [3] = test: Anti-metastatic activity against human Ca9-22 cells assessed as inhibition of cell migration at 2 uM preincubated for 2 hrs followed by 0.5 Jcm'-2 UVA irradiation measured after 16 hrs by wound healing assay relative to control; type: functional; settings: Ca9-22, light or radiation study
Ca9-22 [4] = test: Antiinvasive activity against human Ca9-22 cells assessed as cell invasion at 2 uM preincubated for 2 hrs followed by 0.5 Jcm'-2 UVA irradiation measured after 22 hrs by boyden chamber assay relative to control; type: functional
Ca9-22 [5] = test: Anti-metastatic activity against human Ca9-22 cells assessed as increase in syndecan-1 mRNA expression at 2 uM preincubated for 2 hrs followed by 0.5 Jcm'-2 UVA irradiation measured after 8 hrs by qRT-PCR method; type: functional, cell-based
Ca9-22 [6] = test: Anti-metastatic activity against human Ca9-22 cells assessed as increase in TIMP3 mRNA expression at 2 uM preincubated for 2 hrs followed by 0.5 Jcm'-2 UVA irradiation measured after 8 hrs by qRT-PCR method; type: functional, cell-based
Ca9-22 [7] = test: Anti-metastatic activity against human Ca9-22 cells assessed as reduction in heparanase mRNA expression at 2 uM preincubated for 2 hrs followed by 0.5 Jcm'-2 UVA irradiation measured after 8 hrs by qRT-PCR method; type: functional, cell-based
[8] = molecular target: T1, Epidermal growth factor receptor (Homo sapiens) (UniProt P04626+P00533+Q15303+P21860); test: Inhibition of EGFR/ERK signalling in human Ca9-22 cells assessed as reduction in MMP2 mRNA expression at 2 uM preincubated for 2 hrs followed by 0.5 Jcm'-2 UVA irradiation measured after 8 hrs by qRT-PCR method; type: cell-based
[9] = molecular target: T1, Epidermal growth factor receptor (Homo sapiens); test: Inhibition of EGFR/ERK signalling in human Ca9-22 cells assessed as reduction in MMP9 mRNA expression at 2 uM preincubated for 2 hrs followed by 0.5 Jcm'-2 UVA irradiation measured after 8 hrs by qRT-PCR method; type: cell-based
[10] = molecular target: Epidermal growth factor receptor (Homo sapiens) (UniProt P00533); test: Inhibition of phosphorylated EGFR level in human Ca9-22 cells at 2 uM preincubated for 2 hrs followed by 0.5 Jcm'-2 UVA irradiation by Western blot analysis; type: cell-based
Sequence of Epidermal growth factor receptor (Homo sapiens) (UniProt P00533) (P00533 whole entry): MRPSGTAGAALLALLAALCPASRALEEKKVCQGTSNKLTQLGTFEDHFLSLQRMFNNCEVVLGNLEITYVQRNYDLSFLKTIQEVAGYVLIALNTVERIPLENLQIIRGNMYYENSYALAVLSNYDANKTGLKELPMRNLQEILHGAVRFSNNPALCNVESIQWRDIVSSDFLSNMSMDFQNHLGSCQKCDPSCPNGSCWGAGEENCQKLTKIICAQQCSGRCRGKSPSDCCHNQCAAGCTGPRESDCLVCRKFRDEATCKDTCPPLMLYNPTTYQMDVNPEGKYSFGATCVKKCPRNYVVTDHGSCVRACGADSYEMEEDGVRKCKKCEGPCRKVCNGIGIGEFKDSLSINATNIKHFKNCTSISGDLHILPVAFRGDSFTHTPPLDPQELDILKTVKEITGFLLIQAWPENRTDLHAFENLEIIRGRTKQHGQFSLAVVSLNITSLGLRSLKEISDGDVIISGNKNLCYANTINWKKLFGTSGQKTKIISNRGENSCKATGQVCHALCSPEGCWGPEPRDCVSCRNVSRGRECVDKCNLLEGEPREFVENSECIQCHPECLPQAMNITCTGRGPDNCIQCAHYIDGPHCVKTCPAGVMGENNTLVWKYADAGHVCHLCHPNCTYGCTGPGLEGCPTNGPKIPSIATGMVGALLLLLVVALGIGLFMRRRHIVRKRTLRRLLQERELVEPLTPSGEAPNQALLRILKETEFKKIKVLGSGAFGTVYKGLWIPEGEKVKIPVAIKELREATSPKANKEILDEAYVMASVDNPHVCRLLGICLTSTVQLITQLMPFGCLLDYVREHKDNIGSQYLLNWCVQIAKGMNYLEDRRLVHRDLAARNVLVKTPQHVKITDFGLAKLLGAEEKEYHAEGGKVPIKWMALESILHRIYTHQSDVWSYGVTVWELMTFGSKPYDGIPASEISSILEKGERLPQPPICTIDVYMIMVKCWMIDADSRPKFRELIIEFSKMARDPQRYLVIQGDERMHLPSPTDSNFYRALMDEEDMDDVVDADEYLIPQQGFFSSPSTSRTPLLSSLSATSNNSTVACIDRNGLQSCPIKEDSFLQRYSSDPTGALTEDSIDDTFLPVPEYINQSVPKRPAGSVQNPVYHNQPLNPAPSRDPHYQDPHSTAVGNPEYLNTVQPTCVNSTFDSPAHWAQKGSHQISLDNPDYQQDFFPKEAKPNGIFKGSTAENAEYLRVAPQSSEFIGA

Ca9-22 [11] = test: Inhibition of phosphorylated ERK level in human Ca9-22 cells at 2 uM preincubated for 2 hrs followed by 0.5 Jcm'-2 UVA irradiation by Western blot analysis; type: cell-based
[12] = molecular target: T1, Epidermal growth factor receptor (Homo sapiens); test: Inhibition of EGFR/ERK signalling in human Ca9-22 cells assessed as reduction in MMP2 expression at 2 uM preincubated for 2 hrs followed by 0.5 Jcm'-2 UVA irradiation by Western blot analysis; type: cell-based
[13] = molecular target: T1, Epidermal growth factor receptor (Homo sapiens); test: Inhibition of EGFR/ERK signalling in human Ca9-22 cells assessed as reduction in MMP9 expression at 2 uM preincubated for 2 hrs followed by 0.5 Jcm'-2 UVA irradiation by Western blot analysis; type: cell-based
Ca9-22 [14] = test: Increase in TIMP3 expression in human Ca9-22 cells at 2 uM preincubated for 2 hrs followed by 0.5 Jcm'-2 UVA irradiation by Western blot analysis; type: functional, cell-based

SMILES	viability at 24 h, 5 µM [1] [%]	inhibition at 2 µM (Ca9-22 [3]) [%]	Activity (Ca9-22 [4]) [%]	further results
CCc1ccc2nc(-c3ccc(-n4nnc5ccccc54)cc3)sc2c1	109	–	–	–
COc1ccc2nc(-c3ccc(-n4nnc5ccccc54)cc3)sc2c1	44.1	68.7	38.9	cytotoxicity at 24 h, 2 µM [2]: 20%; Activity (Ca9-22 [5]): Active; Activity (Ca9-22 [6]): Active; Activity (Ca9-22 [7]): Active; inhibition [8]: Active; inhibition [9]: Active; inhibition [10]: Active; inhibition (Ca9-22 [11]): Active; inhibition [12]: Active; inhibition [13]: Active; Activity (Ca9-22 [14]): Active
Cc1cc(-c2nc3ccccc3s2)ccc1-n1nnc2ccccc21	48.6	45.8	47.6	inhibition [10]: Active; inhibition (Ca9-22 [11]): Active; inhibition [12]: Active; inhibition [13]: Active; Activity (Ca9-22 [14]): Active
COc1ccc2c(c1)nnn2-c1ccc(-c2nc3ccc(OC)cc3s2)cc1	81.1	51.7	108.6	–
COc1ccc2c(c1)nnn2-c1ccc(-c2nc3ccc(OC)cc3s2)cc1C	63.3	–	–	–
COc1ccc2c(c1)nnn2-c1ccc(-c2nc3ccccc3s2)cc1	104	–	–	–
COc1ccc2c(c1)nnn2-c1ccc(-c2nc3ccccc3s2)cc1C	79.6	18.5	75.9	–
COc1ccc2c(c1)nnn2-c1ccc(-c2nc3ccc(C(F)(F)F)cc3s2)cc1	105	–	–	–
CCc1ccc2nc(-c3ccc(-n4nnc5cc(OC)ccc54)cc3)sc2c1	114	–	–	–
c1ccc2sc(-c3ccc(-n4nnc5ccccc54)cc3)nc2c1	95.5	–	–	–
COc1ccc2c(c1)nnn2-c1ccc(-c2nc3ccc(C(F)(F)F)cc3s2)cc1C	113	–	–	–
Cc1cc(-c2nc3ccc(C(F)(F)F)cc3s2)ccc1-n1nnc2ccccc21	89.4	–	–	–
FC(F)(F)c1ccc2nc(-c3ccc(-n4nnc5ccccc54)cc3)sc2c1	91.8	–	–	–
CCc1ccc2nc(-c3ccc(-n4nnc5cc(OC)ccc54)c(C)c3)sc2c1	73.1	31.1	70	–
COc1ccc2nc(-c3ccc(-n4nnc5ccccc54)c(C)c3)sc2c1	82.1	–	–	–
CCc1ccc2nc(-c3ccc(-n4nnc5ccccc54)c(C)c3)sc2c1	50.2	70.1	47	inhibition [10]: Active; inhibition (Ca9-22 [11]): Active; inhibition [12]: Active; inhibition [13]: Active; Activity (Ca9-22 [14]): Active
